Target: T1, 3-hydroxy-3-methylglutaryl-coenzyme A reductase (Homo sapiens, UniProt P04035)
T1 sequence (P04035 whole entry): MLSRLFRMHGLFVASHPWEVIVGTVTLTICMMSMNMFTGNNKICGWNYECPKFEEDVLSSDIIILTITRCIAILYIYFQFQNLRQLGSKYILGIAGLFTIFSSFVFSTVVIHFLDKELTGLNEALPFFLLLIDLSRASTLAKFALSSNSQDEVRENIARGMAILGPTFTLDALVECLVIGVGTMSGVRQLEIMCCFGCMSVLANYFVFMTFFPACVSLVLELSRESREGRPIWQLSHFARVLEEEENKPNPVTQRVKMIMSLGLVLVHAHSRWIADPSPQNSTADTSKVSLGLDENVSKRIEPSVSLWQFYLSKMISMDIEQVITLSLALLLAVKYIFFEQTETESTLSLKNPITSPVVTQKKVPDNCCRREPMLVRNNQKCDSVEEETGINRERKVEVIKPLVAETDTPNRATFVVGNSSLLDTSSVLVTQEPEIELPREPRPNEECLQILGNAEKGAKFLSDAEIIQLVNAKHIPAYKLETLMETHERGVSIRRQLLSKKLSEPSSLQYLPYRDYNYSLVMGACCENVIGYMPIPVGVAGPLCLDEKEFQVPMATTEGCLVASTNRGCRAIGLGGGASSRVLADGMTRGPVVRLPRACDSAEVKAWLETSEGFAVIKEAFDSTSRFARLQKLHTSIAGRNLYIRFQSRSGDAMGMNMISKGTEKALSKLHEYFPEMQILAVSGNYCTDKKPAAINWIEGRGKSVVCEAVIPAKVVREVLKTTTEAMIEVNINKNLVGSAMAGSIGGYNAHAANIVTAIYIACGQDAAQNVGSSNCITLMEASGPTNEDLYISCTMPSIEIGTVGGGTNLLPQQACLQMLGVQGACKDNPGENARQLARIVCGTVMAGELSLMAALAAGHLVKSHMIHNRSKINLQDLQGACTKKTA
Assay: Inhibition of HMG CoA reductase

SMILES: CCCCCC[C@@H]1C[C@@H]1CCCCCCCCCC(=O)OCC(O)COP(=O)([O-])OCC[N+](C)(C)C (relative stereo) [LYSOPHOSPHATIDYLCHOLINE]
- IC50: 112 µM

Reference: ChEMBL document CHEMBL1150228, “Synthesis of a novel lysophosphatidylcholine” (J Nat Prod, 2001)
